melting point: 222.5 to 223.8 °C
Structure (SMILES): Cn1c(C#N)ccc1-c1ccc2c(c1F)C1(CC1)C(=O)N2 [Example 5, 5-(4′-fluoro-2′-oxospiro[cyclopropane-1,3′-indoline]-5′-yl)-1-methyl-1H-pyrrole-2-carbonitrile]
